We go through four compounds from patent US5760001A, “Cytokine restraining agents and methods of use in pathologies and conditions associated with altered cytokine levels” (Trega Biosciences, Inc., priority 1995, dated 1998).

In assay [1] the test system is adult female Balb/c mice. Kind of assay: LPS-induced lethality, oral (gavage) dosing. Format: in vivo. Conditions: control mice 0%. The protocol:
The LPS-induced lethality studies were performed based on information reported by Rivier et al., supra, 1989. Adult female Balb/c mice were provided food and water ad libitum. Mice were administered 150 μg or 300 μg EX-2, EX-3, EX-5 or EX-6 in 100 μl saline by gavage every 4 hr for 40 hr (total doses of 1.65 mg and 3.3 mg, respectively). Control mice received 100 μl saline, alone. Immediately following the first dose of cytokines restraining agent or saline, 0.6 mg LPS in 0.2 ml saline was administered by IP injection.

The test system of assay [2] is TNF-α. Kind of assay: Reduction of LPS-induced TNF levels in mice (IP dosing). Conditions: 150 μg/mouse IP before LPS 5 mg/kg IP; vs untreated control mice. It counts as in vivo. As for the experimental part:
Balb/c female mice weighing approximately 20 g were placed into two groups, a control group and a treated group. Five mg/kg of LPS in 0.9% saline was administered by intraperitoneal (IP) injection into the control mice. Mice in the treated group were first injected IP with 30 μg EX-2 or 150 μg EX-3 in saline, then, one mn after EX-2 or EX-3 was administered, the mice received LPS as described for the control group.
Blood samples were collected from the orbital sinus of treated and control mice at various times up to four hr after LPS was administered. The plasma was separated by centrifugation at 3000×g for 5 min, then diluted with four volumes of 1× phosphate buffer saline (pH 7.4) containing 1% bovine serum albumin. A 100 μl sample of serum was assayed by ELISA for TNF-α (Genzyme; Cambridge Mass.).
The mean (±SEM) TNF-α level in six mice from each group was determined and the percent reduction in TNF levels was calculated.

In assay [3] the test system is adult female Balb/c mice. Kind of assay: Carageenan-induced paw swelling. The conditions noted are these: 1 μg/mouse; measured at the 2 hr time point. It counts as in vivo. As for the experimental part: Carageenan-induced paw swelling was induced using a modification of the methods of Hiltz and Lipton, Peptides 11:979-982 (1990); Vinegar et al., Fed. Proc. 46:118-1.26 (1987); and Vinegar et al., J. Pharmacol. Expt. Therap. 166:96-103 (1969), each of which is incorporated herein by reference. Briefly, adult female Balb/c mice were anesthetized by IP injection of 7 mg/kg ketoamine and 0.6 mg/kg rompun. Foot pad thickness was measured using a spring loaded micrometer (Swiss Precision Instruments). Foot pad thickness was expressed in units of 1/100 inch. After baseline measurements were obtained, mice were injected into a hind foot pad with either 0.2 ml physiologic saline (control) or varying doses of EX-2 or EX-3 in 0.2 ml saline (treated). The first injection was followed immediately by injection of 0.02 ml of 0.15% κ-carageenan (Sigma Chemical Co.; St. Louis, Mo.).
Hind foot pad thickness was measured hourly for six hr, the change in thickness was determined and the percent reduction in swelling due to treatment with EX-2 was calculated.

Assay [4] has as its system adult female Balb/c mice. Kind of assay: LPS-induced lethality (IP dosing). Format: in vivo. The conditions noted are these: 11 × 300 μg/mouse IP (3.3 mg), every 4 hr; 0.6 mg LPS; vs control mice. As for the experimental part:
These experiments were performed based on information reported by Rivier et al., Endocrinology 125:2800-2805 (1989), which is incorporated herein by reference. Adult female Balb/c mice were provided food and water ad libitum. Mice were injected IP every four hr for 40 hr with 30 to 300 μg EX-2, EX-3 or EX-4 in 0.2 ml saline (treated group) or with 0.2 ml saline, alone (control group) (10 mice per group). Immediately following the first injection, 0.6 mg LPS endotoxin in 0.2 ml saline was administered to each mouse. Following LPS injection, EX-2 or saline was administered to the treated mice or the control mice, respectively, every 4 hr for 36 hr.

For another assay, the system named is Male Shelton rabbits. Kind of assay: Morphine-induced respiratory depression. Format: in vivo. Conditions: 10 + 20 + 20 μg/kg/rabbit iv; at end of experiment (80 min). As for the experimental part: Male Shelton rabbits (3-4 kg) were restrained and fitted around the thorax, just behind the front limbs, with a respiration transducer (Model F-RCT; Grass Instruments; Quincy Mass.). The transducer was connected to a grass polygraph via an EKG cable. An intravenous line was established for drug administration by cannulating the marginal ear vein using a 25G butterfly needle.
Rabbit breathing was allowed to stabilize, then. morphine sulfate (2 mg/kg in 0.5 ml saline) was administered by intravenous (iv) injection and respiratory rate and depth were monitored for 10 min. A second dose of morphine was administered, then, after 10 min, EX-2 or EX-3 (10 μg/kg in 0.5 ml saline) was administered, iv, and rabbits were monitored for 20 min. Two additional doses of EX-2 or EX-3 (20 μg/kg in 1.0 ml saline) were administered at 20 min intervals, i.e., 40 min and 60 min after the first morphine injection.
Results were calculated as the percent change from baseline values and are expressed as the difference of the mean value of the treated group minus the mean value of the control group at the end of the experiment (80 min).

The test system of assay [5] is TNF-α. Kind of assay: LPS-induced TNF-α levels, oral (gavage) dosing. Format: in vivo, mice. The protocol:
The ability of orally administered cytokine restraining agents to reduce LPS-induced TNF-α levels also was examined. Balb/c female mice (20 g) were administered 150 μg or 300 μg EX-2, EX-3, EX-5 or EX-6 in 100 μl saline by gavage. Control mice received 100 μl saline, alone. One mn later, 0.1 mg LPS was administered by IP injection. Samples were collected and TNF-α levels were determined as described in Example III, above.
The mean TNF-α levels in the mice from each group (n=9-20) was determined and the percent reduction in TNF-α levels was calculated.

In the next assay the test system is female Balb/c mice. Kind of assay: Arachidonic acid-induced ear swelling. It counts as in vivo. Conditions: 100 μg/mouse IP 30 min prior to AA; 60 min after AA application. As for the experimental part: Experiments were performed using female Balb/c mice weighing 18-23 grams. Saline or 100 μg EX-2 or EX-3 was administered IP, 30 min prior to topical application of arachidonic acid (AA). A 10 μl pipet was used to apply 10 μl AA solution (100 mg/ml ethanol; Calbiochem-Novabiochem; San Diego Calif.) to the inner and outer surfaces of the right ear of each mouse. Ten μl ethanol, alone, was applied to the inner and outer surface of the left ear of each mouse.
Ear thickness was measured with a hand-held spring loaded caliper immediately before and 60 min after AA application. Increase in ear thickness was calculated by subtracting the change observed in the control ear from the change observed in AA-treated ear. The value for each group (saline and control) is the average of the swelling observed in the individual mice in each group. The percent reduction of swelling is based on the swelling observed in the saline control group.

Where [6] appears, read: 300 μg by gavage before 0.1 mg LPS IP.

Several values for one entry are separate records, joined by “and”; a condition that tells them apart may be missing. Equal entries are not always repeated. Square brackets hold non-standard residues; d marks the D form. Peptide text beside a SMILES is read from it.

Regarding `CC(=O)N[C@@H](Cc1c[nH]cn1)C(=O)N[C@H](Cc1ccccc1)C(=O)N[C@@H](CCCNC(=N)N)C(=O)N[C@H](Cc1c[nH]c2ccccc12)C(N)=O` [EX-6, Ac-His-(D)Phe-Arg-(D)Trp-NH2], the “increase in survival (LPS-induced lethality)” value in the assay with adult female Balb/c mice [1] (1.65 mg total (150 μg every 4 hr for 40 hr)) was determined as 68%.

Turning to `CC(=O)N[C@H](C(=O)N[C@@H](CCC(N)=O)C(=O)N[C@@H](Cc1c[nH]cn1)C(=O)N[C@H](Cc1ccccc1)C(=O)N[C@@H](CCCNC(=N)N)C(=O)N[C@H](Cc1c[nH]c2ccccc12)C(=O)NCC(N)=O)C1CCCCC1` [EX-3, Ac-(cyclohexyl)Gly-Gln-His-(D)Phe-Arg-(D)Trp-Gly-NH2], in the assay on TNF-α [2], the “Reduction in TNF levels” value amounted to 56%. The “Reduction in Carageenan-induced Paw Swelling” value in the assay with adult female Balb/c mice [3] turned out to be 49%. The “Inhibition of LPS-induced Lethality (increase in survival)” value with adult female Balb/c mice [4] was determined as 86%. The “Reduction in Morphine-induced Respiratory Depression” value in the assay with Male Shelton rabbits is reported as 65%. The “percent reduction in TNF-α levels” value stood at 49% in the assay with TNF-α [5] (150 μg by gavage before 0.1 mg LPS IP) and 40% in the assay on TNF-α [5] (setting [6]). Further, the “Reduction in arachidonic acid-induced Ear Swelling” value in the assay on female Balb/c mice stood at 62%.

For the compound `CC(=O)N[C@H](Cc1ccccc1)C(=O)N[C@@H](CCCNC(=N)N)C(=O)N[C@H](Cc1c[nH]c2ccccc12)C(N)=O` [EX-4, Ac-(D)Phe-Arg-(D)Trp-NH2], in the assay on TNF-α [2], the “Reduction in TNF levels” value was found to be 53%. The “Inhibition of LPS-induced Lethality (increase in survival)” value in the assay with adult female Balb/c mice [4] is 75%.

With `CC(=O)N[C@@H](Cc1c[nH]cn1)C(=O)N[C@H](Cc1ccccc1)C(=O)N[C@@H](CCCNC(=N)N)C(=O)N[C@H](Cc1c[nH]c2ccccc12)C(=O)NCC(N)=O` [EX-5, Ac-His-(D)Phe-Arg-(D)Trp-Gly-NH2] (Ac-H[dF]R[dW]G-NH2), in the assay with adult female Balb/c mice [1] (3.3 mg total (300 μg every 4 hr for 40 hr)), the “increase in survival (LPS-induced lethality)” value is 63% and 44%. The “percent reduction in TNF-α levels” value in the assay with TNF-α [5] (setting [6]) was found to be 44%.
